Source: ChEMBL document CHEMBL5625247, “Tetrahydro-β-carboline derivatives as potent histone deacetylase 6 inhibitors with broad-spectrum antiproliferative activity” (Eur J Med Chem, 2023)
The source made the active and inactive calls. No cut-off for these calls is given here.

Assays:
[1] = system: OVCAR-8; assay: Antiproliferative activity against human OVCAR-8 cells assessed as cell growth inhibition incubated for 72 hrs by alamar blue dye based assay; type: functional
[2] = system: TK-10; assay: Antiproliferative activity against human TK-10 cells assessed as cell growth inhibition incubated for 72 hrs by alamar blue dye based assay; type: functional
[3] = system: SR; assay: Antiproliferative activity against human SR cells assessed as cell growth inhibition incubated for 72 hrs by alamar blue dye based assay; type: functional
[4] = system: A498; assay: Antiproliferative activity against human A498 cells assessed as cell growth inhibition incubated for 72 hrs by alamar blue dye based assay; type: functional
[5] = system: K562; assay: Antiproliferative activity against human K562 cells assessed as cell growth inhibition incubated for 72 hrs by alamar blue dye based assay; type: functional
[6] = system: MDA-MB-231; assay: Antiproliferative activity against human MDA-MB-231 cells assessed as cell growth inhibition incubated for 72 hrs by alamar blue dye based assay; type: functional
[7] = system: SF-268; assay: Antiproliferative activity against human SF-268 cells assessed as cell growth inhibition incubated for 72 hrs by alamar blue dye based assay; type: functional
[8] = system: SNB-75; assay: Antiproliferative activity against human SNB-75 cells assessed as cell growth inhibition incubated for 72 hrs by alamar blue dye based assay; type: functional
[9] = system: HCT-15; assay: Antiproliferative activity against human HCT-15 cells assessed as cell growth inhibition incubated for 72 hrs by alamar blue dye based assay; type: functional
[10] = system: SK-OV-3; assay: Antiproliferative activity against human SK-OV-3 cells assessed as cell growth inhibition incubated for 72 hrs by alamar blue dye based assay; type: functional
[11] = system: RPMI-8226; assay: cells; type: functional, cell-based; settings: Homo sapiens; for GI50: RPMI-8226, time 72 hrs
[12] = system: NCI-H322M; assay: Antiproliferative activity against human NCI-H322M cells assessed as cell growth inhibition incubated for 72 hrs by alamar blue dye based assay; type: functional
[13] = system: UACC-257; assay: Antiproliferative activity against human UACC-257 cells assessed as cell growth inhibition incubated for 72 hrs by alamar blue dye based assay; type: functional
[14] = system: OVCAR-4; assay: Antiproliferative activity against human OVCAR-4 cells assessed as cell growth inhibition incubated for 72 hrs by alamar blue dye based assay; type: functional
[15] = system: ACHN; assay: Antiproliferative activity against human ACHN cells assessed as cell growth inhibition incubated for 72 hrs by alamar blue dye based assay; type: functional
[16] = Half life in Sprague-Dawley rat at 3 mg/kg, po by LC-MS/MS analysis; type: ADME, organism-based; settings: in vivo
[17] = Tmax in Sprague-Dawley rat at 3 mg/kg, po by LC-MS/MS analysis; type: ADME, organism-based; settings: in vivo
[18] = biological target: T1, Protein deacetylase HDAC6 (Homo sapiens, UniProt Q9UBN7); assay: Inhibition of HDAC6 (unknown origin) expressed in baculovirus infected in Sf9 cells using RHKKAc as substrate preincubated for 5 to 10 mins followed by substrate addition measured after 2 hrs by fluorescence based assay
T1 sequence (Q9UBN7 whole entry): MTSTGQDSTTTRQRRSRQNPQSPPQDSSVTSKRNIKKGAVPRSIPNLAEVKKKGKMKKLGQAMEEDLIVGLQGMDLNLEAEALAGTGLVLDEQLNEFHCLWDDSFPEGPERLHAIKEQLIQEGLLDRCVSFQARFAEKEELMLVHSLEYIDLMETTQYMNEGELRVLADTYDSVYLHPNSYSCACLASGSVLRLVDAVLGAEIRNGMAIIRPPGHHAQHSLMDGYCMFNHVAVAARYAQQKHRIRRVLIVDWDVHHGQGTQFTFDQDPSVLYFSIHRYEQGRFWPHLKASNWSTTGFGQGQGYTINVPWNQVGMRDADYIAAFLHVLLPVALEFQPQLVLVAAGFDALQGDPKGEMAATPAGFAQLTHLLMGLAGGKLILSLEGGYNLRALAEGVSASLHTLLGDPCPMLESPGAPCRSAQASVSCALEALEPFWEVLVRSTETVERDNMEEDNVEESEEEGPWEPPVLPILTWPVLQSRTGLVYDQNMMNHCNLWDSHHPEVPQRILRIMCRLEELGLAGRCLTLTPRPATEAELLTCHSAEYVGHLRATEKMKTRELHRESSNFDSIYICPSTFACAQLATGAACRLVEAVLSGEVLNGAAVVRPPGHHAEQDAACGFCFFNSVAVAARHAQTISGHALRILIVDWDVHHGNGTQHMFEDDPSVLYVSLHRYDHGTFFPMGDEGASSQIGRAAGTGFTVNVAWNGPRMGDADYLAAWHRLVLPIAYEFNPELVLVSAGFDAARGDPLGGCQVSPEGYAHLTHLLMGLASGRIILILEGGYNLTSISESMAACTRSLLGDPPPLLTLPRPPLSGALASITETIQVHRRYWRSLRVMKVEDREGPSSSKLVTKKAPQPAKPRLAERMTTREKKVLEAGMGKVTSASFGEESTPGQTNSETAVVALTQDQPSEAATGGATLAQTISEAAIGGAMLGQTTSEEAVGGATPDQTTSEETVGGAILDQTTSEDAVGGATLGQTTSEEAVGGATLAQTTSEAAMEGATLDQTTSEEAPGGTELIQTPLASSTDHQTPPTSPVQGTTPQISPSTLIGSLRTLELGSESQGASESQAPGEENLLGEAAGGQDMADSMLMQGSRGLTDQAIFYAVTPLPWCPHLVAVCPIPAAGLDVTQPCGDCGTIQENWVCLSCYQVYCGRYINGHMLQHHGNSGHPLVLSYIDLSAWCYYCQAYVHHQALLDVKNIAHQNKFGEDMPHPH

[19] = Half life in Sprague-Dawley rat at 0.2 mg/kg, iv by LC-MS/MS analysis; type: ADME, organism-based; settings: in vivo
[20] = biological target: Histone deacetylase 8 (Homo sapiens, UniProt Q9BY41); assay: Inhibition of HDAC8 (unknown origin) expressed in baculovirus infected in Sf9 cells using RHKKAc as substrate preincubated for 5 to 10 mins followed by substrate addition measured after 2 hrs by fluorescence based assay
[21] = biological target: Class 1 histone deacetylase (Homo sapiens) (UniProt Q13547+O15379+Q92769+Q9BY41); assay: Inhibition of class 1 HDAC in human RPMI-8226 cells assessed as increase in histone H3 acetylation at 1 to 10 uM incubated for 24 hrs by Western blot analysis; type: cell-based; settings: dose 1-10 µM
[22] = biological target: T2, Protein deacetylase HDAC6 (Homo sapiens) (UniProt Q9UBN7); assay: Inhibition of HDAC6 in human RPMI-8226 cells assessed as increase in histone H3 acetylation at 1 to 10 uM incubated for 24 hrs by Western blot analysis; type: cell-based; settings: dose 1-10 µM
T2 sequence (whole entry): T1 sequence (Q9UBN7 whole entry)

[23] = AUC (0 to last) in Sprague-Dawley rat at 3 mg/kg, po by LC-MS/MS analysis; type: ADME, organism-based; settings: in vivo
[24] = Volume of distribution at steady state in Sprague-Dawley rat at 0.2 mg/kg, iv by LC-MS/MS analysis; type: ADME, organism-based; settings: in vivo, read-out: Vdss
[25] = biological target: Histone deacetylase 4 (Homo sapiens, UniProt P56524); assay: Inhibition of HDAC4 (unknown origin) expressed in baculovirus infected in Sf9 cells using RHKKAc as substrate preincubated for 5 to 10 mins followed by substrate addition measured after 2 hrs by fluorescence based assay
Sequence of Histone deacetylase 4 (P56524 whole entry): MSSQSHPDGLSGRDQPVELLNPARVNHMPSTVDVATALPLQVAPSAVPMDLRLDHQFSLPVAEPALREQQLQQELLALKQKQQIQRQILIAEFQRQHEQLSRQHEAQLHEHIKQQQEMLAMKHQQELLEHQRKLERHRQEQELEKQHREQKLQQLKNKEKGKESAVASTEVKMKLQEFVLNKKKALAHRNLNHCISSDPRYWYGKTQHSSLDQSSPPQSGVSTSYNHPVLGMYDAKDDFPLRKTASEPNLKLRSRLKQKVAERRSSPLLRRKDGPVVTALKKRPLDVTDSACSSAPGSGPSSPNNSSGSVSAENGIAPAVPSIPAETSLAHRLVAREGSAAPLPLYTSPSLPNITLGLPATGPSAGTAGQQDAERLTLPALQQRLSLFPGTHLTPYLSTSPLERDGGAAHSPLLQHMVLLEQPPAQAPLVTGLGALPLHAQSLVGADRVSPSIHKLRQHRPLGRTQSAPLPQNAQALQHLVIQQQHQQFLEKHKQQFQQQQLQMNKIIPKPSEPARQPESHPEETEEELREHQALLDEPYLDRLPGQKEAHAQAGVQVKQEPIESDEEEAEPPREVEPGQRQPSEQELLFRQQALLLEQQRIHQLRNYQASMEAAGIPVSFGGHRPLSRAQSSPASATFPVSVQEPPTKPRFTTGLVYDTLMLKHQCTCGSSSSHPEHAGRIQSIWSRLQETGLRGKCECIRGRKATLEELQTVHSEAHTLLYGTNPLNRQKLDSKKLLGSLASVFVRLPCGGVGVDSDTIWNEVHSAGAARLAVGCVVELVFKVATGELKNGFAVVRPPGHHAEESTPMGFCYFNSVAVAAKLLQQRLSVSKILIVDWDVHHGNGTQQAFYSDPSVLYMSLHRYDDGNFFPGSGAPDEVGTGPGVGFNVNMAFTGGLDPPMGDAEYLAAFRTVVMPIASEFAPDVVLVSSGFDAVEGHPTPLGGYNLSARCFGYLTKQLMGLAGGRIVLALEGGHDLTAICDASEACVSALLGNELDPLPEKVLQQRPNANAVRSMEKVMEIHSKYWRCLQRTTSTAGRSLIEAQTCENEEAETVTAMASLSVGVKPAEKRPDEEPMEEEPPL

Sequence of Histone deacetylase 8 (Q9BY41 whole entry): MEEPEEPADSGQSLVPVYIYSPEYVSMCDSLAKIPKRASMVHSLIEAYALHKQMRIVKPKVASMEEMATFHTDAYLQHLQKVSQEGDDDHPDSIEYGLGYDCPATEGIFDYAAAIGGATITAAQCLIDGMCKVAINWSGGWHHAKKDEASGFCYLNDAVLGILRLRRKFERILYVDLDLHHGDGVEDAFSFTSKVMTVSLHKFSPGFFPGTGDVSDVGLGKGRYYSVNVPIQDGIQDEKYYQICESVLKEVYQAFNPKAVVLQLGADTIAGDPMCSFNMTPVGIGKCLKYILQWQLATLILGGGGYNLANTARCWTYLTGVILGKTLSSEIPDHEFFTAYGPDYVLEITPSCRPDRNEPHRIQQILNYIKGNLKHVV
Sequence of Class 1 histone deacetylase (Homo sapiens) (O15379 whole entry, looked up): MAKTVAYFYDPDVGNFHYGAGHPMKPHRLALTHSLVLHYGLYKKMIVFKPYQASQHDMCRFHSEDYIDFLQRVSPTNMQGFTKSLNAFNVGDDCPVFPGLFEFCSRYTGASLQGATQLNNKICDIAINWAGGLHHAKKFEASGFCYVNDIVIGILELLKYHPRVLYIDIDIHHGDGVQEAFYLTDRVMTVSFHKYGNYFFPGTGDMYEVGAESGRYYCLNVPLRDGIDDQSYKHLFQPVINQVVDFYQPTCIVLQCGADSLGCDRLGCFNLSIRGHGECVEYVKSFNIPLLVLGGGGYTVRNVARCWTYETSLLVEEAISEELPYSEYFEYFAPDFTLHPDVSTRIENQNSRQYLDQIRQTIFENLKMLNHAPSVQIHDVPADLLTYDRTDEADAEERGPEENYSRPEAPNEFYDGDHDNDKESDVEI
Sequence of Class 1 histone deacetylase (Homo sapiens) (Q13547 whole entry, looked up): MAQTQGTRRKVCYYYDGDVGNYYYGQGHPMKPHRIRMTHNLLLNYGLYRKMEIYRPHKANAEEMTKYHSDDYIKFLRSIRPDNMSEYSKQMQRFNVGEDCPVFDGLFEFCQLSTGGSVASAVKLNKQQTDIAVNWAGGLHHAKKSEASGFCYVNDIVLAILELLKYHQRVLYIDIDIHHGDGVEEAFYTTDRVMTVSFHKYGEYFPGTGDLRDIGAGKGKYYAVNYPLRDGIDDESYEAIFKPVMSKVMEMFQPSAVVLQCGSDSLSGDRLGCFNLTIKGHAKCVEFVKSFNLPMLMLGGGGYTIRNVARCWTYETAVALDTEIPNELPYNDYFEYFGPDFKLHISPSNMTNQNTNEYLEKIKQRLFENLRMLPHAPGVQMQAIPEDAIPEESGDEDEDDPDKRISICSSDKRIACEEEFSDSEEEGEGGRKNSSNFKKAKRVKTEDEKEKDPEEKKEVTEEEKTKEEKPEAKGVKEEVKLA
Sequence of Class 1 histone deacetylase (Homo sapiens) (Q92769 whole entry, looked up): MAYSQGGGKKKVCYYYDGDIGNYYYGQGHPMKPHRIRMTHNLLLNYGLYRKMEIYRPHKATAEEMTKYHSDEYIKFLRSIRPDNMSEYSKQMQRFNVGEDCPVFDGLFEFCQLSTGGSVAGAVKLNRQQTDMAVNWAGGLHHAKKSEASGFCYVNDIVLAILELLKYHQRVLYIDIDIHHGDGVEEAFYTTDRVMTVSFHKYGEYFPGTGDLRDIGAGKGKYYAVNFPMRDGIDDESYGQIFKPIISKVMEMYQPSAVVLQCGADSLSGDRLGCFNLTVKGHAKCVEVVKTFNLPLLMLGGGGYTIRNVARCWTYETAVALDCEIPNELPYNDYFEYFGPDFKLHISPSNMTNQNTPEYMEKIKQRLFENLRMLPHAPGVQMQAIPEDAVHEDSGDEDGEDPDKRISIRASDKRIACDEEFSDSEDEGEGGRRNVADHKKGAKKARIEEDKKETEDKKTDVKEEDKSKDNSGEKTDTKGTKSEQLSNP
Sequence of Class 1 histone deacetylase (Homo sapiens) (Q9BY41 whole entry, looked up): as the sequence (Q9BY41 whole entry) above

Row | Structure (SMILES) | GI50 [1] [µM] | GI50 [2] [µM] | GI50 [3] [µM] | GI50 [4] [µM] | GI50 [5] [µM] | GI50 [6] [µM] | GI50 [7] [µM] | GI50 [8] [µM] | GI50 [9] [µM] | GI50 [10] [µM] | GI50 [11] [µM] | GI50 [12] [µM] | GI50 [13] [µM] | GI50 [14] [µM] | GI50 [15] [µM] | also measured
1 | COc1ccc(CN2[C@@H](C(=O)NCc3ccc(C(=O)NO)cc3)Cc3c([nH]c4ccccc34)[C@@H]2C2CC2)cc1 | 2.56 | 3.17 | > 19.8 | 2.77 | 1.67 | 2.43 | 4.4 | 1.13 | 3.75 | 2.87 | 2.92 | 4.25 | 2.39 | 4.74 | 3.52 | –
2 | O=C(NO)c1ccc(CNC(=O)[C@H]2Cc3c([nH]c4ccccc34)[C@H](c3ccc(Cl)cc3)N2)cc1 | 0.942 | 1.51 | 1.15 | 2.06 | 0.72 | 0.887 | 2.92 | 2.26 | 4.26 | 2.01 | 0.564 | 1.62 | 1.23 | 3.73 | 3.05 | half-life [16]: 3.41 h; Tmax [17]: 1.54 h; IC50 [18]: 0.00268 µM; half-life [19]: 3.38 h; IC50 [20]: 0.292 µM; inhibition [21]: Active; IC50 ([11]; RPMI-8226, 72 h): 0.62 µM; inhibition [22]: Active; AUC(0-t) [23]: 9.6 µM·h; Vd [24]: 0.81 L/kg; IC50 [25]: > 50 µM
